Counter-ions that a name gives are not always drawn. Like-named read-outs stand apart in the source and are kept apart here. One block for each molecule: values may come before it.
Key:
Leukotriene D4 Receptor = target: T1, Leukotriene D4 Receptor (Cavia porcellus, UniProt Q2NNR5); assay: Leukotriene D4 Receptor Binding Inhibition Test; parameters: species or system guinea pig; conditions: for inhibition at 10 µM: read-out: LTD4 receptor, inhibition rate (%) at a high concentration
T1 construct: guinea pig pulmomembranous protein; from tissue; host or cells: guinea pig lung membranes
T1 sequence (Q2NNR5 1-340): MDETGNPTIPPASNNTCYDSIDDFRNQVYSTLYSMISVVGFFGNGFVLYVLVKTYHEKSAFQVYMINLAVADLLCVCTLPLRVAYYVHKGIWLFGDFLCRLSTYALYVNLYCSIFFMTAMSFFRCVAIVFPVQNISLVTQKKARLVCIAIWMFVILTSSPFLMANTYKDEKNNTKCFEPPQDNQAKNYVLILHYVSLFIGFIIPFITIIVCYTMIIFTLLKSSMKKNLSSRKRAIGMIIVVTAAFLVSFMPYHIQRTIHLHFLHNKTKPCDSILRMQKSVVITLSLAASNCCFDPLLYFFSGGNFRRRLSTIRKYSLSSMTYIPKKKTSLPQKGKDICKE
Protocol: An ice-cold tris hydrochloride/sodium chloride buffer (10 mM/100 mM, pH 7.5) was added to terminate the reaction, followed by immediate filtration through a Wattman CF/C filter. The filter was washed twice with 20 ml aliquots of the ice-cold buffer. The radio-activity of the residue was measured by a liquid scintillation counter. […] Using the Cheng-Prusoff formula, a dissociation constant (KD) was calculated from the IC50.

[1] = test system: isolated guinea pig ileum; assay: Antileukotriene D4 Action (In vitro Test): isotonic contractive response of isolated ileum to leukotriene D4; assay type: cell-based; conditions: Cavia porcellus, 0.5 h, Krebs buffer 37° C., 30 minutes incubation with test compound, read-out: Anti-LTD4 action (IC50 value)
Protocol: Antileukotriene D4 Action (In vitro Test)
An isolated guinea pig ileum was cut into about 2 cm lengths. Each ileum piece was suspended in a 20-ml organ bath filled with the Krebs buffer. […] The Krebs buffer was controlled at 37° C., through which a mixed gas (95%O2 -5%CO2) was bubbled. First, leukotriene D4 was added to an organ bath to measure its dose-response. After the ileum piece was washed several times with the buffer, a test compound (will be identified by its example number; this will apply likewise hereinafter) of a predetermined specific concentration was added.

airway constriction = conditions: cited from earlier work
[2] = read-out: LTD4 receptor, dissociation constant KD

inhibition at 10 µM (Leukotriene D4 Receptor): 18%
Molecule: O=C(O)c1ccc(O)c(C(=O)/C=C/c2ccccc2OCc2ccc3ccccc3n2)c1 [Example 3, 5'-Carboxy-2'-hydroxy-2-[(2-quinolyl)methoxy]chalcone]

inhibition at 10 µM (Leukotriene D4 Receptor): 23%
Molecule: O=C(O)c1ccc(O)c(C(=O)/C=C/c2ccc(OCc3ccccc3)cc2)c1 [Example 4, 4-Benzyloxy-5'-carboxy-2'-hydroxychalcone]

inhibition at 10 µM (Leukotriene D4 Receptor): 0%
Molecule: O=C(O)c1ccc(O)c(C(=O)/C=C/c2ccccc2OCc2ccccc2)c1 [Example 6, 2-Benzyloxy-5'-carboxy-2'-hydroxychalcone]

Kd (Leukotriene D4 Receptor; [2]): 307 nM
Molecule: O=C(O)c1cccc(C(=O)/C=C/c2ccc(OCc3ccc4ccccc4n3)cc2)c1O [Example 7, 3'-Carboxy-2'-hydroxy-4-[(2-quinolyl)methoxy]chalcone]

Kd (Leukotriene D4 Receptor; [2]): 396 nM
Molecule: O=C(O)c1cc(F)cc(C(=O)/C=C/c2ccc(OCc3ccc4ccccc4n3)cc2)c1O [Example 8, 3'-Carboxy-5'-fluoro-2'-hydroxy-4-[(2-quinolyl)methoxy]chalcone]

Kd (Leukotriene D4 Receptor; [2]): 732 nM
Molecule: O=C(O)c1cc(Cl)cc(C(=O)/C=C/c2ccc(OCc3ccc4ccccc4n3)cc2)c1O [Example 9, 3'-Carboxy-5'-chloro-2'-hydroxy-4-[(2-quinolyl)methoxy]chalcone]

inhibition at 10 µM (Leukotriene D4 Receptor): 16%
Molecule: CCOC(=O)c1ccc(O)c(C(=O)C=Cc2ccc(OCc3ccc4ccccc4n3)cc2)c1 [Example 17]

IC50 [1]: 67 nM
Molecule: O=C(/C=C/c1ccc(OCc2ccc3ccccc3n2)cc1)c1cc(-c2nnn[nH]2)ccc1O [Example 19, 2'-Hydroxy-4-[(2-quinolyl)-methoxy]-5'-(5-tetrazolyl)-chalcone]

IC50 [1]: 480 nM
Molecule: CCOCCn1c(COc2ccc(C=CC(=O)c3cc(-c4nn[nH]n4)ccc3O)cc2)nc2ccccc21 [Example 23]

inhibition at 10 µM (Leukotriene D4 Receptor): 4%
Molecule: O=C(/C=C/c1ccc(OCc2ccc3ccccc3c2)cc1)c1cc(-c2nnn[nH]2)ccc1O [Example 26, 2'-Hydroxy-4-(2-naphthyl-methoxy)-5'-(5-tetrazolyl)-chalcone]

IC50 [1]: 290 nM
Molecule: COc1ccc(C(=O)O)cc1C(=O)/C=C/c1ccc(OCc2ccc3ccccc3n2)cc1 [Example 29, 5'-Carboxy-2'-methoxy-4-[(2-quinolyl)methoxy]chalcone]

Molecule: CCCCOc1ccc(C(=O)O)cc1C(=O)C=Cc1ccc(OCc2ccc3ccccc3n2)cc1 [Example 32, 2'-n-Butoxy-5'-carboxy-4-(2-quinolylmethoxy)chalcone.HCl]
inhibition at 10 µM (Leukotriene D4 Receptor): 41%

inhibition at 10 µM (Leukotriene D4 Receptor): 8%
Molecule: N#Cc1cccc(C(=O)/C=C/c2ccc(OCc3ccc4ccccc4n3)cc2)c1 [Example 35, 3'-cyano-4-(2-quinolylmethoxy)-chalcone]

inhibition at 10 µM (Leukotriene D4 Receptor): 6%
Molecule: N#Cc1cccc(C(=O)/C=C/c2cccc(OCc3ccc4ccccc4n3)c2)c1 [Example 36, 3'-Cyano-3-(2-quinolylmethoxy)-chalcone]

inhibition at 10 µM (Leukotriene D4 Receptor): 26%
Molecule: CCOCCn1c(COc2cccc(C=CC(=O)c3ccc(C(=O)O)cc3O)c2)nc2ccccc21 [Example 37, 4'-Carboxy-3-[(1-ethoxyethyl-benzimidazol-2-yl)methoxy]-2'-hydroxychalcone.HCl]

IC50 [1]: 120 nM
Molecule: O=C(O)c1cccc(C(=O)/C=C/c2cccc(C=Cc3ccc4ccccc4n3)c2)c1O [Example 40, 3'-carboxy-2'-hydroxy-3-[(2-quinolyl)-ethenyl]chalcone]

inhibition at 10 µM (Leukotriene D4 Receptor): 38%
Molecule: N#Cc1ccc(O)c(C(=O)/C=C/c2cccc(OCc3ccc4ccccc4n3)c2)c1 [Example 58, 5'-Cyano-2'-hydroxy-3-[(2-quinolyl)methoxy]chalcone]

Molecule: CCCCC/C=C\C\C=C/C=C/C=C/[C@@H](SC[C@H](NC(=O)CC[C@H](N)C(=O)O)C(=O)NCC(=O)O)[C@@H](O)CCCC(=O)O [LTC4]
effects on airway constriction relative to histamine (airway constriction; when inhaled, compared with histamine): 1,000 times

Molecule: CCCCC/C=C\C\C=C/C=C/C=C/[C@@H](SC[C@H](N)C(=O)O)[C@@H](O)CCCC(=O)O [LTE4]
duration of airway constriction (airway constriction; compared with that caused by the other leukotrienes): long lasting
activity compared with the other leukotrienes (airway constriction; compared with the other leukotrienes): lower activities

Molecule: [^3 H]leukotriene D4 [reference compound]
slope of Hill plot (Leukotriene D4 Receptor; [^3 H]leukotriene D4 binding): 0.99
Kd (Leukotriene D4 Receptor; read-out: dissociation constant (KD) of [^3 H]leukotriene D4, radioligand, guinea pig pulmomembranous protein): 0.262 nM

From patent US6046212A, “Chalcone derivatives and drugs containing the same” (Kowa Co., Ltd., priority 1996, dated 2000)
